Where a name gives a salt, the structure may show the parent alone.

In the test the target is S1P1/EDG1 (Homo sapiens, UniProt P21453). In words: S1P1 CRE-bla CHOK1 reporter assay, inhibition of Forskolin induced cAMP. Type of test: cell-based. The following applies: agonist activity range; S1P1 CRE-bla CHOK1 cells, 2 μM Forskolin; read-out: S1P1 ACTIVITY
Chain of S1P1/EDG1 (P21453 whole entry): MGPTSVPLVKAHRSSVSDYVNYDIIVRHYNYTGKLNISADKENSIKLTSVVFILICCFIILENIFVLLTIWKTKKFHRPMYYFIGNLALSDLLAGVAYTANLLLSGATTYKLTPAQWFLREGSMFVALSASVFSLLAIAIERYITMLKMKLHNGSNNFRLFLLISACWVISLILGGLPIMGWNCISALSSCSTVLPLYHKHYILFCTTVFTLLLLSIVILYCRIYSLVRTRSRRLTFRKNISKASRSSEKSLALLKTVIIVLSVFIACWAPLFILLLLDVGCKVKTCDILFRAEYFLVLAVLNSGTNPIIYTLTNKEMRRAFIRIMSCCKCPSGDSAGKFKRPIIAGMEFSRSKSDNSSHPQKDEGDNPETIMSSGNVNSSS
The essentials:
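CRE-bla CHO K1 cells stably expressing human S1P1 were treated 4 hrs at 37° C with 10-point compound dilutions plus 2 μM Forskolin. Inhibition of cAMP-driven β-lactamase reporter was read with a FRET substrate loaded 2 hrs at room temperature.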
A general note: A reporter such as luciferase makes a cellular process visible.
For `CC(C)Oc1ccc(-c2nnc(-c3cccc4c3CCC[C@@H]4NS(=O)(=O)CC(=O)N(C)C)s2)cc1C#N` [Compound 293, (S)-2-(N-(5-(5-(3-cyano-4-isopropoxyphenyl)-1,3,4-thiadiazol-2-yl)-1,2,3,4-tetrahydronaphthalen-1-yl)sulfamoyl)-N,N-dimethylacetamide], the EC50 was in the range of 0.05 to 0.5 nM.
With `CNC(=O)CS(=O)(=O)N[C@@H]1CCCc2c(-c3nnc(-c4ccc(OC(C)C)c(C#N)c4)s3)cccc21` [Compound 294], the EC50 lay within 0.05 to 0.5 nM.
Under `CNC(=O)CS(=O)(=O)N[C@H]1CCCc2c(-c3nnc(-c4ccc(OC(C)C)c(C#N)c4)s3)cccc21` [Compound 295] stands 0.05 to 0.5 nM; under `CC(C)Oc1ccc(-c2nnc(-c3cccc4c3CCC[C@H]4NCCS(C)(=O)=O)s2)cc1C#N` [Compound 296, (R)-2-isopropoxy-5-(5-(5-((2-(methylsulfonyl)ethyl)amino)-5,6,7,8-tetrahydronaphthalen-1-yl)-1,3,4-thiadiazol-2-yl)benzonitrile], 0.05 to 0.5 nM; under `CC(C)Oc1ccc(-c2nnc(-c3cccc4c3CCC[C@@H]4NCCS(C)(=O)=O)s2)cc1C#N` [Compound 297, (S)-2-isopropoxy-5-(5-(5-((2-(methylsulfonyl)ethyl)amino)-5,6,7,8-tetrahydronaphthalen-1-yl)-1,3,4-thiadiazol-2-yl)benzonitrile], 0.5 to 5 nM.
Under `CNC(=O)CCS(=O)(=O)N[C@H]1CCCc2c(-c3nnc(-c4ccc(OC(C)C)c(C#N)c4)s3)cccc21` [Compound 298, (S)-3-(N-(5-(5-(3-cyano-4-isopropoxyphenyl)-1,3,4-thiadiazol-2-yl)-1,2,3,4-tetrahydronaphthalen-1-yl)sulfamoyl)-N-methylpropanamide] stands 0.05 to 0.5 nM; under `CC(C)Oc1ccc(-c2nnc(-c3cccc4c3CCC[C@H]4NCCO)s2)cc1C#N` [Compound 299, (R)-5-(5-(5-((2-hydroxyethyl)amino)-5,6,7,8-tetrahydronaphthalen-1-yl)-1,3,4-thiadiazol-2-yl)-2-isopropoxybenzonitrile], 0.5 to 5 nM.
Regarding `CC(C)Oc1ccc(-c2nnc(-c3cccc4c3CCC[C@@H]4NCCO)s2)cc1C#N` [Compound 300, (S)-5-(5-(5-((2-hydroxyethyl)amino)-5,6,7,8-tetrahydronaphthalen-1-yl)-1,3,4-thiadiazol-2-yl)-2-isopropoxybenzonitrile], the EC50 is 0.05 to 0.5 nM.
To `CC(C)Oc1ccc(-c2nnc(-c3cccc4c3CCC[C@H]4NCC(=O)O)s2)cc1C#N` [Compound 301, (R)-2-((5-(5-(3-cyano-4-isopropoxyphenyl)-1,3,4-thiadiazol-2-yl)-1,2,3,4-tetrahydronaphthalen-1-yl)amino)acetic acid] belongs 0.05 to 0.5 nM.
To `CC(C)Oc1ccc(-c2nnc(-c3cccc4c3CCC[C@@H]4NCC(=O)O)s2)cc1C#N` [Compound 302, (S)-2-((5-(5-(3-cyano-4-isopropoxyphenyl)-1,3,4-thiadiazol-2-yl)-1,2,3,4-tetrahydronaphthalen-1-yl)amino)acetic acid] belongs 0.05 to 0.5 nM.
Under `CC(C)Oc1ccc(-c2nnc(-c3cccc4c3CCC[C@H]4NCC(=O)N3CCCC3)s2)cc1C#N` [Compound 303, (R)-2-isopropoxy-5-(5-(5-((2-oxo-2-(pyrrolidin-1-yl)ethyl)amino)-5,6,7,8-tetrahydronaphthalen-1-yl)-1,3,4-thiadiazol-2-yl)benzonitrile] stands 0.05 to 0.5 nM; under `CC(C)Oc1ccc(-c2nnc(-c3cccc4c3CCC[C@@H]4NCC(=O)N3CCCC3)s2)cc1C#N` [Compound 304, (S)-2-isopropoxy-5-(5-(5-((2-oxo-2-(pyrrolidin-1-yl)ethyl)amino)-5,6,7,8-tetrahydronaphthalen-1-yl)-1,3,4-thiadiazol-2-yl)benzonitrile], 0.5 to 5 nM.
For `CNC(=O)CN[C@@H]1CCCc2c(-c3nnc(-c4ccc(OC(C)C)c(C#N)c4)s3)cccc21` [Compound 305], the EC50 lay within 0.05 to 0.5 nM.
As to `CNC(=O)CN[C@H]1CCCc2c(-c3nnc(-c4ccc(OC(C)C)c(C#N)c4)s3)cccc21` [Compound 306], the EC50 was 0.05 to 0.5 nM.
On to `CC(C)Oc1ccc(-c2nc(-c3cccc4c3CC[C@@H]4N)ns2)cc1C#N` [Compound 307, (S)-5-(3-(1-amino-2,3-dihydro-1H-Inden-4-yl)-1,2,4-thiadiazol-5-yl)-2-isopropoxy benzonitrile hydrochloride], for which the EC50 lay in the range of 0.5 to 5 nM.
To `CC(C)Oc1ccc(-c2nsc(-c3cccc4c3CC[C@@H]4N)n2)cc1C#N` [Compound 308, (S)-5-(5-(1-amino-2,3-dihydro-1H-inden-4-yl)-1,2,4-thiadiazol-3-yl)-2-isopropoxy benzonitrile hydrochloride] belongs 0.5 to 5 nM; to `CC(C)Oc1ccc(-c2nc(-c3cccc4c3CC[C@@H]4NS(N)(=O)=O)ns2)cc1C#N` [Compound 309, (S)—N-(4-(5-(3-cyano-4-isopropoxyphenyl)-1,2,4-thiadiazol-3-yl)-2,3-dihydro-1H-inden-1-yl) sulfamide], 0.05 to 0.5 nM; to `CC(C)Oc1ccc(-c2nsc(-c3cccc4c3CC[C@@H]4NS(N)(=O)=O)n2)cc1C#N` [Compound 310, (S)—N-(4-(3-(3-cyano-4-isopropoxyphenyl)-1,2,4-thiadiazol-5-yl)-2,3-dihydro-1H-inden-1-yl) sulfamide], 0.05 to 0.5 nM.
Take `CC(C)Oc1ccc(-c2nc(-c3cccc4c3CC[C@@H]4NCCO)ns2)cc1C#N` [Compound 311, (S)-5-(3-(1-(2-hydroxyethyl)amino)-2,3-dihydro-1H-inden-4-yl)-1,2,4-thiadiazol-5-yl)-2-isopropoxybenzonitrile hydrochloride]: the EC50 was 0.5 to 5 nM.
Consider `CC(C)Oc1ccc(-c2nc(-c3cccc4c3CC[C@@H]4N(CCO)CCO)ns2)cc1C#N` [Compound 312, (S)-5-(3-(1-(bis(2-hydroxyethyl)amino)-2,3-dihydro-1H-inden-4-yl)-1,2,4-thiadiazol-5-yl)-2-isopropoxybenzonitrile hydrochloride], for which the EC50 lay within 0.5 to 5 nM.
Under `COC(=O)CS(=O)(=O)N[C@H]1CCc2c(-c3nsc(-c4ccc(OC(C)C)c(C#N)c4)n3)cccc21` [Compound 313, (S)-methyl 2-(N-(4-(5-(3-cyano-4-isopropoxyphenyl)-1,2,4-thiadiazol-3-yl)-2,3-dihydro-1H-inden-1-yl)sulfamoyl)acetate] stands 0.05 to 0.5 nM.
To `CC(C)Oc1ccc(-c2nc(-c3cccc4c3CC[C@@H]4NS(=O)(=O)CCO)ns2)cc1C#N` [Compound 314, (S)—N-(4-(5-(3-cyano-4-isopropoxyphenyl)-1,2,4-thiadiazol-3-yl)-2,3-dihydro-1H-inden-1-yl)-2-hydroxyethanesulfonamide] belongs 0.5 to 5 nM.

The values are drawn from patent US9481659B2, “Selective heterocyclic sphingosine 1 phosphate receptor modulators” (Celgene International II SÀRL, priority 2011, dated 2016).
